Measured values as given in paper PMC6813295, “A tumour-selective cascade activatable self-detained system for drug delivery and cancer imaging” (Nature Communications, 2019).
Where two headings read alike, the source gives them in different places. Where a SMILES comes first, the peptide text is derived from it. The star is where a group is joined. X1 = CC1(C)C(=CC=C2CCCC(C=CC3=[N+](CCCCCC(=O)O)c4ccccc4C3(C)C)=C2*)N(CCCCCC(=O)O)c2ccccc21

Columns and labels:
[1] = Organ biodistribution from fluorescence of tissue lysates; conditions: female, Balb/c nude, mouse, in vivo, iv, 14 mg/kg
Description: (§1) Animal experiments were performed in accordance with the Guide for the Care and Use of Laboratory Animals and approved by the Institutional Animal Care and Use Committee (IACUC) of the National Center for Nanoscience and Technology (NCNST), China. Female Balb/c nude mice (6–8 weeks, 18–22 g) were purchased from Vital River Laboratory Animal Technology Co. Ltd. H460 cells were subcutaneously implanted into these mice on the right flank. Then the mice were randomly grouped (n = 3). When the tumour grew to a single aspect of about 0.5 cm, we injected the molecules 1, 2 and 3 intravenously in the same dose of 14 mg/kg in PBS solution, respectively. Fluorescence images were measured by a Maestro II in vivo imaging system (CRi) at 1, 2, 4, 6, 8, 12, 24, 48, 72, 96 and 120 h post injection. Further, tumours and other major organs (i.e., heart, liver, spleen, lung and kidney) were collected for ex vivo fluorescence imaging at 48 h post injection. The organ biodistribution of the 1, 2 and 3 was examined using H460 xenografts mice. The mice were sacrificed at 2, 4, 8, 12, 24 or 48 h post injection. Finally, all the major organs and tumour were collected, weighed, and homogenized (0.3 mL of lysis buffer per 100 mg of tissues). The homogeneous tissue solutions were obtained for fluorescence imaging by IVIS Spectrum CT. Known concentrations of compound 1, 2 or 3 are used to make the standard curve (concentration from 2.8 to 25.2 μg/mL), the “Predicted R-Squared” value of 0.99. Then we utilized this standard curve to measure the molecule content in each tissue. In addition, EJ xenograft tumour mice model was built, as above described, to validate the generality of the strategy.
Supplementary Figure 35∣ Quantitative analysis of the fluorescence intensity. In order to ensure the accuracy of the results, we added a standard solution in every tested 96 -well plate. The fluorescence property of molecules 1, 2 and 3 were identical. We take molecule 1 as example to illustrate the quantitative analysis. a. The top view of fluorescence images of a serial concentration of molecule 1 by Maestro II. The number from 1 to 11 represented 2.8, 5.6, 8.4, 11.2, 14.0, 16.8, 19.6, 22.4, 25.2, 28.0, 35.0 (μg/mL), respectively. The control group represented PBS buffer. b.
Fluorescence intensity (relative to the background signal) increase d linearly with the concentration […]
(§2) (1 picture or pasted object on this page, not shown here)
Supplementary Figure 36 ∣ Representative NIR fluorescence images of tissue lysates. The molecules 1, 2 and 3 (14 mg/kg, n = 3) on H460 tumour-bearing mice after intravenous administration in three groups. The mice were sacrificed at 2 h, 4 h, 8 h, 12 h, 24 h or 48 h post injection . […] The homogenous tissue solutions were obtained for fluorescence imaging. […]

[2] = system: H460 tumour-bearing nude mice; assay: Pharmacokinetic parameters in tumour (DAS2.0); type: in vivo, mouse; conditions: IV 14 mg/kg; for AUC0→t / AUC0→∞ / CL / MRT(0-t), mean retention time / Tmax / t1/2β, elimination half-life: in tumour, means ± SD n = 3; for AUC0→t: 0–48 h
Description: as §1
Supplementary Table 1︱Pharmacokinetic parameters of intravenously-administered 1, 2 and 3 in […]
Data are presented as means ± SD (n = 3). t1/2β, elimination half -life; CL, plasma clearance; Cmax, maximum concentration; Tmax, peak time ; MRT: mean retention time; AUC(0 -t), area under the 1, 2 and 3 concentration-time curve from time zero to the last quantifiable value; AUC(0 -∞), area und er the 1, 2 and 3 concentration -time curve from time zero to infinity, which represents the total drug exposure over time. h, hour(s).

H460 tumour-bearing mice = type: in vivo, mouse; conditions: IV 14 mg/kg; for retention efficiency in tumour up to 48 h post injection: integrated fluorescence in tumour normalized to 1 h, n = 3, repeated three times
Description: as §1
Supplementary Figure 31∣ Representative NIR fluorescence images of H460 tumour-bearing mice after intravenous administration with molecules 1, 2 and 3 (14 mg/kg, n = 3). Images were acquired at 1 h, 4 h, 12 h, 24 h 48 h, 72 h, 96 h and 120 h post injection (p.i.). The yellow circles marked the same size of the tumour region.
as §2
Supplementary Figure 32∣ Representative NIR fluorescence images o f H460 tumour-bearing mice after intravenous administrat ed with molecules 1 (14 mg/kg, n = 3) in three groups (In order to test the repeatability of the results, we chose different batches of mice to repeat trials . They were named 1-group, 2-group and 3-group, respectively.). Images were acquired at 1 h, 4 h, 12 h, 24 h 48 h and 72 h post injection (p.i.). All data were obtained by n ormalized fluorescence intensity in tumour. Data are presented as the mean ± s.d. (n= 3).

H460 cells = assay: Flow cytometry labelling ratio of subcultured cells; type: cell-based, human; conditions: 50 μM, 37 °C, 2 h; for labelling ratio of H460 cells at the third generation: subcultured at 24 h interval
Description: Supplementary Figure 24∣Flow cytometry histograms of H460 cells treated with molecule 1, 2 and
3 (50 μM) at 37 °C for 2 h, respectively, and then subcultured for designated generations (a 24 h
interval). The untreated H460 cells were used as the control group.
as §2

[3] = fluorescence of diluted tissue lysates, mean ± s.d. n = 3, read-out: tumour uptake / accumulation efficiency at 48 h post injection

| Structure (SMILES) | tissue uptake at 48 h [1, 3] [%ID/g] | tissue uptake at 48 h ([1]; fluorescence of tissue lysates, mean ± s.d. n = 3, read-out: liver retention at 48 h post injection) [%ID/g] | AUC0–48h in tumour of molecule 1 relative to 2 [2] | AUC0–48h in tumour of molecule 1 relative to 3 [2] | AUC0→t [2] [mg·h/g] | AUC0→∞ [2] [mg·h/g] | CL [2] [mL/min/kg] | MRT(0-t), mean retention time [2] [h] | Tmax [2] [h] | t1/2β, elimination half-life [2] [h] | retained tumour signal on the fifth day relative to molecules 2 and 3 (H460 tumour-bearing mice) [fold] | retention efficiency in tumour up to 48 h post injection (H460 tumour-bearing mice) | fluorescence signal retained in tumour on the fifth day (H460 tumour-bearing mice; normalized fluorescence intensity in tumour) | labelling ratio of H460 cells at the first generation (H460 cells; compared to untreated cells) [%] | labelling ratio of H460 cells at the third generation (H460 cells) |
| --- | --- | --- | --- | --- | --- | --- | --- | --- | --- | --- | --- | --- | --- | --- | --- |
| CC[C@H](C)[C@H](NC(=O)[C@@H]1CCCN1C(=O)[C@@H](NC(=O)[C@H](C)N)C(C)C)C(=O)N[C@@H](C)C(=O)N[C@@H](CCC(N)=O)C(=O)N[C@@H](CCCCN)C(=O)N[C@@H](CC(=O)O)C(=O)N[C@@H](CCC(=O)O)C(=O)N[C@H](C(=O)N[C@@H](CC(=O)O)C(=O)N[C@@H](CCCCN)C(=O)N[C@@H](CC(C)C)C(=O)N[C@H](C(=O)N[C@@H](Cc1ccccc1)C(=O)N[C@@H](Cc1ccccc1)C(=O)N[C@@H](C)C(=O)N[C@@H](CCC(=O)O)C(=O)N[C@@H](CSC1=C(C=CC2=[N+](CCCCCC(=O)O)c3ccccc3C2(C)C)CCCC1=CC=C1N(CCCCCC(=O)O)c2ccccc2C1(C)C)C(=O)NCC(=O)O)C(C)C)C(C)C [molecule 1] (H-AVPIAQKDEVDKLVFFAEC(X1)G-OH) | 9.2 ± 0.5 | 4.1 ± 0.2 | six-fold | three-fold | 71.2 ± 4.7 | 145.9 ± 1.0 | 1.3 ± 0.5 | 23.4 ± 0.2 | 4.0 ± 0 | 69.3 ± 0 | ~2.5 | approximately 22.0% | over 16.0% | 100 | above 16.4% |
| CSCC[C@H](N)C(=O)N[C@@H](CC(=O)O)C(=O)N[C@@H](CCC(=O)O)C(=O)N[C@@H](CCCCN)C(=O)N[C@@H](C)C(=O)N[C@@H](CCC(N)=O)C(=O)N[C@@H](CCCCN)C(=O)N[C@@H](CC(=O)O)C(=O)N[C@@H](CCC(=O)O)C(=O)N[C@H](C(=O)N[C@@H](CC(=O)O)C(=O)N[C@@H](CCCCN)C(=O)N[C@@H](CC(C)C)C(=O)N[C@H](C(=O)N[C@@H](Cc1ccccc1)C(=O)N[C@@H](Cc1ccccc1)C(=O)N[C@@H](C)C(=O)N[C@@H](CCC(=O)O)C(=O)N[C@@H](CSC1=C(C=CC2=[N+](CCCCCC(=O)O)c3ccccc3C2(C)C)CCCC1=CC=C1N(CCCCCC(=O)O)c2ccccc2C1(C)C)C(=O)NCC(=O)O)C(C)C)C(C)C [molecule 2] (H-MDEKAQKDEVDKLVFFAEC(X1)G-OH; N-terminus assumed) | 4.2 ± 0.1 | – | – | – | 12.2 ± 1.9 | 14.1 ± 2.2 | 16.7 ± 2.5 | 15.2 ± 4.5 | 3.3 ± 1.2 | 10.0 ± 1.9 | – | less than 10.0% | – | – | 6.83% |
| CC[C@H](C)[C@H](NC(=O)[C@@H]1CCCN1C(=O)[C@@H](NC(=O)[C@H](C)N)C(C)C)C(=O)N[C@@H](C)C(=O)N[C@@H](CCC(N)=O)C(=O)N[C@@H](CCCCN)C(=O)N[C@@H](CC(=O)O)C(=O)N[C@@H](CCC(=O)O)C(=O)N[C@H](C(=O)N[C@@H](CC(=O)O)C(=O)N[C@@H](CCC(=O)O)C(=O)N[C@@H](CSC1=C(C=CC2=[N+](CCCCCC(=O)O)c3ccccc3C2(C)C)CCCC1=CC=C1N(CCCCCC(=O)O)c2ccccc2C1(C)C)C(=O)NCC(=O)O)C(C)C [molecule 3] (H-AVPIAQKDEVDEC(X1)G-OH; N-terminus assumed) | 5.3 ± 0.8 | – | – | – | 26.6 ± 8.9 | 34.6 ± 12.2 | 7.33 ± 2.5 | 10.7 ± 1.8 | 6.7 ± 2.3 | 10.6 ± 2.8 | – | less than 10.0% | – | – | 3.89% |
